# Columns and labels:
# [1] = test system: A549 human lung carcinoma epithelial cells; test: SRB cytotoxicity assay, A549 cells; settings: for Selectivity Index (SI): A549 (cancerous) versus NIH/3T3 (non-cancerous), SRB 72 h; for IC50: Homo sapiens, A549, 72 h, read-out: IC50, cytotoxicity against A549 cells
# Experimental: After incubation, cells were fixed with trichloroacetic acid (Cat. No. T4885, Sigma-Aldrich, USA), stained with SRB (Cat. No. S9012, Sigma-Aldrich, USA), and the absorbance was measured at 515 nm. Percent cell death was calculated using the following equation: % Cell death=(ODc−OD0)‐(ODs−OD0)/(ODc−OD0)×100
# OD0 = Optical density of cells before treatment (baseline reading).
# ODC = Optical density of untreated control cells after 72 h.
# ODS = Optical density of cells treated with the test sample after 72 h.
# Non-linear regression analysis was performed using GraphPad Prism to calculate the IC50 value. This value reflects the concentration needed to inhibit cell growth by 50%.
# All data are presented as mean ± standard error of the mean (SEM) and were collected from three separate experiments. Statistical analyses were conducted using Student’s t-test or ANOVA, followed by Tukey’s multiple comparisons test. Significance is indicated by *p < 0.05, **p < 0.01, and ***p < 0.001.
# [2] = test system: E. coli; test: Antibacterial MIC, broth microdilution with resazurin; assay type: cell-based; settings: Escherichia coli, Gram-negative
# Text: (§1) Methicillin-resistant Staphylococcus aureus (MRSA), methicillin-susceptible S. aureus (MSSA), and Gram-negative clinical isolates of bacteria [Escherichia coli (9637) and Serratia marcescens ATCC 13880] were used for this study. […] MSSA HBP10, MSSA LUU7, MSSA R113, S. aureus ONE9, and MSSA POB2 were isolated in Hawaiʻi (Gerken et al. [2021]). Mueller Hinton Broth (MHB, GTIN:00382902979630, Becton, Dickinson and Company, Franklin Lakes, NJ, USA) and Mueller Hinton Agar (MHA, GTIN:00382902252504, Becton, Dickinson and Company, Franklin Lakes, NJ, USA,) were used for bacterial inoculation. MRSA was a pathogen strain causing hospital-acquired infections in 1982. This strain easily acquires resistance to antibiotics, such as vancomycin. MSSA strains isolated from the Island of Hawaiʻi included: Honolʻii Beach Park (HBP10) carry the genes erm(C), aph(3′)-III, and mecA, which provide resistance to macrolide, aminoglycoside, and beta-lactam antibiotics, respectively; Wailuku River (LUU7) which contains the blaZ gene (beta-lactam resistance) (Gerken et al. [2021]). Richardson’s Beach Park (R113) and Onekahakaha (ONE9) which is known for its virulence factors (hlgA, hlgB, hlgC, lukD, and lukE).
# (§2) The minimum inhibitory concentrations (MICs) were determined using a two-fold serial dilution method with MHB following the recommendations of the Clinical and Laboratory Standards Institute (CLSI [2012]; Elshikh et al. [2016]). In brief, serial two-fold dilutions of the samples in DMSO were mixed with MHB in a 96-well microplate. Then, 50 µL of bacteria suspension was added to each well, resulting in a final concentration of 1 × 10^4 colony-forming units/well. The plates were incubated at 35–37 °C for 18–24 hr. After incubation, 10 µL of 0.18% resazurin (Cat. No. R7017, Sigma-Aldrich, USA) was added to each well (Elshikh et al. [2016]). The MIC was assessed within 2–3 hr after the addition of resazurin. All antimicrobial assays were performed in triplicate, using vancomycin (Cat. No. SBR00001, Sigma-Aldrich, USA) and gentamicin (Cat. No. G1397, Sigma-Aldrich, USA) as standard controls.
# [3] = test system: MSSA LUU7; test: as above; assay type: cell-based; settings: Staphylococcus aureus; MSSA LUU7, Gram-positive; read-out: MIC
# Text: as §1, §2
# [4] = test system: S. aureus ONE9; test: as above; assay type: cell-based; settings: Staphylococcus aureus; S. aureus ONE9, Gram-positive; read-out: MIC
# Text: as §1, §2
# [5] = test system: S. marcescent; test: as above; assay type: cell-based, Serratia marcescens; settings: Serratia marcescens, Gram-negative, read-out: MIC
# Text: as §1, §2
Compound,"cytotoxic response against A549 cells (in words) ([1]; SRB assay, 72 h, highest concentration tested 100 µg/ml)",MIC [2],MIC [3],MIC [4],MIC [5],Selectivity Index (SI) [1],IC50 [1]
"Nc1ccn([C@H]2C[C@H](O)[C@@H](CO)O2)c(=O)n1 [Compound 1, deoxycytidine]",no cytotoxic response,128 µg/mL,128 µg/mL,128 µg/mL,128 µg/mL,,
"CC(C)CCC[C@@H](C)[C@H]1CC[C@H]2[C@@H]3CC=C4C[C@@H](O)CC[C@]4(C)[C@H]3CC[C@]12C [Compound 9, cholesterol]",,128 µg/mL,128 µg/mL,128 µg/mL,128 µg/mL,1.03,176 ± 5.3 µM
"CC(C)CCC[C@@H](C)[C@H]1CCC2[C@@]34C=C[C@]5(C[C@@H](O)CC[C@]5(C)C3CC[C@@]21C)OO4 (some centres unmarked) [Compound 10, 7-dehydrochoresterol peroxide]",,128 µg/mL,128 µg/mL,128 µg/mL,64 µg/mL,1.12,86.1 µM
"CC(C)CCC[C@@H](C)[C@H]1CCC2[C@]1(C)CC=C1[C@]23C=C[C@]2(C[C@@H](O)CC[C@]12C)OO3 (stereo partly drawn) [Compound 11, (3β-5α-8α)5,8-epidioxycholesta-6,9(1)-diene-3-ol]",,128 µg/mL,128 µg/mL,128 µg/mL,64 µg/mL,1.05,137 ± 4.4 µM

# — paper PMC12203697, “Bioactive constituents from the edible seaweed Halymenia hawaiiana (Rhodophyta)” (Pharmaceutical Biology, 2025)
